Laboratory results: US11807693B2 (priority 2014, dated 2023)
Starred links: 1 amine or outer side, 2 acyl side, 3 side chain; linkers in the order of their positions; H or OH if unused. Non-standard residues stand in square brackets, D forms with d. Residues, ends and D or L forms follow the SMILES beside them. *: point of attachment. dBip = N[C@H](Cc1ccc(-c2ccccc2)cc1)C(=O)O; Oic = O=C(O)[C@@H]1C[C@@H]2CCCC[C@@H]2N1; Phe(4-Cl) = N[C@@H](Cc1ccc(Cl)cc1)C(=O)O; dPhe(4-Cl) = N[C@H](Cc1ccc(Cl)cc1)C(=O)O; Phe(4-I) = N[C@@H](Cc1ccc(I)cc1)C(=O)O; γGlu = O=C(O)[C@H](CCC(=O)[*:2])N[*:1]; HOOC(CH2)8CO = O=C(O)CCCCCCCCC(=O)*; NMeR = CN[C@@H](CCCNC(=N)N)C(=O)O; Tridecanoyl = CCCCCCCCCCCCC(=O)*; hArg = N=C(N)NCCCC[C@H](N)C(=O)O; Cha = N[C@@H](CC1CCCCC1)C(=O)O; NMeL = CN[C@@H](CC(C)C)C(=O)O; Pip = O=C(O)[C@@H]1CCCCN1; Nle = CCCC[C@H](N)C(=O)O; AEEA = NCCOCCOCC(=O)O; βAla = NCCC(=O)O

Experiments:
[1] = In vitro stability in rat plasma; type: in vitro ADME
Outline: (§1)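 Stability was followed for 4 hr at 37° C. after spiking peptides (5 μM final) into rat plasma and tissue homogenates. Methanol quench with internal standard preceded high resolution LC-MS.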

[2] = In vitro stability in rat liver homogenate; type: in vitro ADME; details: tissue homogenate
Outline: as §1

human APJ receptor = molecular target: T1, human APJ receptor (Homo sapiens, UniProt P35414); experiment: [35S] GTPγS assay, human APJ receptor; type: biochemical
T1 construct: expressed in transfected cells
T1 sequence (P35414 1-380): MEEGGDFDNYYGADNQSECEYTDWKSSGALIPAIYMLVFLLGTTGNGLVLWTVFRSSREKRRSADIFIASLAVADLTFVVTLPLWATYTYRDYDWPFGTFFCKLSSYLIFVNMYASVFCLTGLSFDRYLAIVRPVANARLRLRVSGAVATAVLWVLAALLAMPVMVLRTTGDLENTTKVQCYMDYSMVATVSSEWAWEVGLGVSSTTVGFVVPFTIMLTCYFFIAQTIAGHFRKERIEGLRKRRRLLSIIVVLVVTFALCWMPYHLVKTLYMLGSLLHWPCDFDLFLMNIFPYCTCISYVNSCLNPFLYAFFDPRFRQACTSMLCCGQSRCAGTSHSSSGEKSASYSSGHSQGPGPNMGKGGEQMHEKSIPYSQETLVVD

rat APJ receptor = molecular target: T2, rat APJ receptor (Rattus norvegicus, UniProt Q9JHG3); experiment: [35S] GTPγS assay, rat APJ receptor; type: biochemical; details: Table 16, read-out: EC50 Rat APJ Receptor
T2 construct: expressed in transfected cells
T2 sequence (Q9JHG3 1-377): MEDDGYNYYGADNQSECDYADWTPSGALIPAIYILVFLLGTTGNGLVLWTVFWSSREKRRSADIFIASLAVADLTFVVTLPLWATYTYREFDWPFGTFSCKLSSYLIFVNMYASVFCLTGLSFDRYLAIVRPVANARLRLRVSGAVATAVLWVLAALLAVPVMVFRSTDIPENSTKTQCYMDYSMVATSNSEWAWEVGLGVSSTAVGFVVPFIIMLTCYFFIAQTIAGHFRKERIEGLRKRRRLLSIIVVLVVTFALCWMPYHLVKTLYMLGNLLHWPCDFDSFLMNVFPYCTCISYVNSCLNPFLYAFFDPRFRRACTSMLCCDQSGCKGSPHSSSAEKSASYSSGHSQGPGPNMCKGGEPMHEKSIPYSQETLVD
Description: The membranes were incubated with modified peptides in the assay buffer. […] Bound [^35S] GTPγS was separated from free radiolabel by filtration. The filter bound radioactivity was determined by liquid scintillation counting.

Compound	remaining at 4 h, 5 μM [1] [%]	remaining at 4 h, 5 μM [2] [%]	EC50 (human APJ receptor; Table 16) [nM]	EC50 (rat APJ receptor) [nM]	EC50 (human APJ receptor; human APJ receptor) [nM]
CCCCCCCCCCCCC(=O)N[C@@H](CCC(=O)NCCOCCOCC(=O)NCCOCCOCC(=O)N[C@@H](CCC(N)=O)C(=O)N[C@@H](CCCNC(=N)N)C(=O)N1CCC[C@H]1C(=O)N(C)[C@@H](CCCCNC(=N)N)C(=O)N[C@@H](CC(C)C)C(=O)N[C@@H](CO)C(=O)N[C@@H](Cc1c[nH]cn1)C(=O)N[C@@H](CCCCN)C(=O)NCC(=O)N1CCC[C@H]1C(=O)N[C@@H](CCCC)C(=O)N1CCC[C@H]1C(=O)N[C@@H](Cc1ccc2ccccc2c1)C(=O)O)C(=O)O [compound 471]	52	< 1	0.0229	–	–
CCCCCCCCCCCCC(=O)N[C@@H](CCC(=O)NCCOCCOCC(=O)NCCOCCOCC(=O)N[C@@H](CCCNC(=N)N)C(=O)N[C@@H](CCC(N)=O)C(=O)N[C@@H](CCCNC(=N)N)C(=O)N1CCC[C@H]1C(=O)N[C@@H](CCCCN)C(=O)N[C@@H](CC1CCCCC1)C(=O)N[C@@H](C)C(=O)N[C@@H](C)C(=O)N[C@@H](CCCC)C(=O)NCC(=O)N1[C@H](C(=O)N[C@@H](CCCC)C(=O)N2CCC[C@H]2C(=O)N[C@@H](Cc2ccc(Cl)cc2)C(=O)O)C[C@@H]2CCCC[C@@H]21)C(=O)O [compound 346] ({Tridecanoyl-γGlu-AEEA-AEEA}-RQRPK[Cha]AA[Nle]G[Oic][Nle]P[Phe(4-Cl)]-OH)	–	–	2.77	–	–
CC(C)C[C@@H](C(=O)N[C@@H](CO)C(=O)N[C@@H](Cc1c[nH]cn1)C(=O)N[C@@H](CCCCN)C(=O)NCC(=O)N1[C@H](C(=O)N[C@@H](Cc2ccc(I)cc2)C(=O)N2CCC[C@H]2C(=O)N[C@H](Cc2ccc(-c3ccccc3)cc2)C(=O)O)C[C@@H]2CCCC[C@@H]21)N(C)C(=O)[C@@H](CCCNC(=N)N)NC(=O)[C@@H]1CCCN1C(=O)[C@H](CCCCNC(=N)N)NC(=O)[C@H](CCC(N)=O)NC(=O)COCCOCCNC(=O)COCCOCCNC(=O)CC[C@H](NC(=O)CCCCCCCCC(=O)O)C(=O)O [compound 288] ({HOOC(CH2)8CO-γGlu-AEEA-AEEA}-Q[hArg]P[dR][NMeL]SHKG[Oic][Phe(4-I)]P[dBip]-OH)	–	–	–	–	38.5

The next lines start with the values.

remaining at 4 h, 5 μM [1] [%]	remaining at 4 h, 5 μM [2] [%]	EC50 (human APJ receptor; Table 16) [nM]	EC50 (rat APJ receptor) [nM]	EC50 (human APJ receptor; human APJ receptor) [nM]	Compound
–	–	3.29	10.4	–	CCCCCCCCCCCCC(=O)N[C@@H](CCC(=O)NCCOCCOCC(=O)NCCOCCOCC(=O)N[C@H](CCC(N)=O)C(=O)N[C@@H](CCCCNC(=N)N)C(=O)N1CCC[C@H]1C(=O)N(C)[C@@H](CCCNC(=N)N)C(=O)N[C@@H](CC1CCCCC1)C(=O)N[C@@H](CO)C(=O)N[C@@H](Cc1c[nH]cn1)C(=O)N[C@@H](CCCCN)C(=O)NCC(=O)N1[C@H](C(=O)N[C@@H](CCCC)C(=O)NCCC(=O)N[C@H](Cc2ccc(Cl)cc2)C(=O)O)C[C@@H]2CCCC[C@@H]21)C(=O)O [compound 295] ({Tridecanoyl-γGlu-AEEA-AEEA}-[dQ][hArg]P[NMeR][Cha]SHKG[Oic][Nle][βAla][dPhe(4-Cl)]-OH)
57.7	–	0.192	–	–	CCCCCCCCCCCCC(=O)N[C@@H](CCC(=O)NCCOCCOCC(=O)NCCOCCOCC(=O)N[C@@H](CCC(N)=O)C(=O)N[C@@H](CCCNC(=N)N)C(=O)N1CCC[C@H]1C(=O)N(C)[C@@H](CCCNC(=N)N)C(=O)N[C@@H](CC1CCCCC1)C(=O)N[C@@H](CO)C(=O)N[C@@H](Cc1c[nH]cn1)C(=O)N[C@@H](CCCCN)C(=O)NCC(=O)N1CCCC[C@H]1C(=O)N[C@@H](CCCC)C(=O)N1CCC[C@H]1C(=O)N[C@@H](Cc1ccc(Cl)cc1)C(=O)O)C(=O)O [compound 416] ({Tridecanoyl-γGlu-AEEA-AEEA}-QRP[NMeR][Cha]SHKG[Pip][Nle]P[Phe(4-Cl)]-OH)
> 90	–	–	–	1.52	CCCCCCCCCCCCCCCC(=O)N[C@@H](CCC(=O)NCCOCCOCC(=O)NCCOCCOCC(=O)N[C@H](CCC(N)=O)C(=O)N[C@@H](CCCNC(=N)N)C(=O)N1CCC[C@H]1C(=O)N(C)[C@@H](CCCNC(=N)N)C(=O)N[C@@H](CC1CCCCC1)C(=O)N[C@@H](CO)C(=O)N[C@@H](Cc1c[nH]cn1)C(=O)N[C@@H](CCCCN)C(=O)NCC(=O)N1CCCC[C@H]1C(=O)N[C@@H](CCCC)C(=O)N1CCCC(C(=O)N[C@@H](Cc2ccc(Cl)cc2)C(=O)O)C1)C(=O)O (single isomer, unassigned) [compound 588]
